Test [1] has as its system rats agés de 12 semaines, insulinorésistance induite par l'amyline. In words: Insulin resistance induced by intraportal amylin perfusion, with IVGTT. It is filed as in vivo, rat. The settings on record: Perfusion amyline + 0,75µg/kg/min pendant 60 mn. From the text: A J₇ avant le début de l'expérimentation, les rats sont anesthésiés à la kétamine (IMALGENE 1000 - Rhône MERIEUX), et un cathéter en silastic (602-135, médical grade, DOW CORNING MIDLAND) est implanté dans la veine porte hépatique [cf. Strubbe J.H., Wolsink J.G., Schutte A.M., Balkan B., and Prins A.J.A. : Hepatic-portal and cardiac infusion of CKK-8 and glucagon induce different effects on feeding. Physiology and Behavior 46,643-646 (1989)] pour la perfusion du soluté physiologique (jour contrôle) puis du produit à tester. Ils sont alors placés individuellement dans des cages en plexiglas. • Après récupération, soit environ 10 jours plus tard, un second cathéter en silastic (602-155, médical grad, DOW CORNING MIDLAND) est introduit jusque dans l'oreillette droite par la veine jugulaire droite [cf. Steffens A.B : A Method for frequent sampling of blood and continuous infusion of fluids in the rat without disturbing the animal. Physiology and behavior 4, 833-836 (1969)]. Lors des test, les différents prélèvements sanguins et l'injection intra-cardiaque du bolus glucosé seront effectués à l'aide de ce cathéter. Pendant les deux interventions chirurgicales, les cathéters sont glissés sous la peau et extériorisés au-dessus de la tête au moyen d'une aiguille limée recourbée et bouchée par un capuchon de polyéthylène (PE) fermé à la bougie. • 0,4 ml d'une solution d'héparine à 500 U/ml (ROUSSEL UCLAF) suivie de 0,1 ml de PVP (Solution de Polyvinylpyrrolidone à 30 % - PM 25000 - MERCK) sont introduits dans les cathéters avant la fermeture par le capuchon de polyéthylène. La viscosité du PVP permet d'éviter un reflux du sang dans le cathéter. • La veille de chaque expérience, les rats sont soumis à un jeûne nocturne de 18 heures. Le jour de l'expérience, ces rats sont pesés et le bon fonctionnement des cathéters vérifié. • Afin d'éliminer le stress du branchement des cathéters sur les aiguilles extériorisées sur le dessus de la tête, 20 minutes de repos sont nécessaires avant de commencer l'expérience. • Les perfusions intraportales, réalisées à l'aide d'un cathéter en polyéthylène N° 3 durent 60 minutes; elles ont un débit constant de 2 ml/heure soit envirion 0,033 ml/minute, assuré par un perfuseur BRAUN. […]

The test system of test [2] is Rats SDCD mâles 52 semaines. Put plainly: Acute treatment by portal perfusion in the conscious rat, with IVGTT. In kind it is in vivo. The settings on record: 0,25 µg/kg/min×60 min intraportal perfusion; vs Contrôle 57,4 ± 13,7 µU/ml. From the text:
La technique de perfusion portale chez le rat vigile permet d'étudier l'effet de substances pharmacologiques sur les modifications de la tolérance au glucose adminstré par voie intraveineuse.
L'injection d'agents directement dans la circulation portale permet d'éviter les effets du transit gastrique, d'absorption et de libération d'hormone par la paroi intestinale et ainsi d'explorer : • soit un effet direct sur le tissu hépatique, • soit l'existence d'un relai foie-système nerveux central-tissu périphérique (foie, muscle ou cible endocrine).
Dans cette expérimentation, on a utilisé des rats mâles adultes SPRAGUE DAWLEY par lots de 5 à 12 rats.
Les rats utilisés, agés de 52 semaines, présentent • une diminution de la tolérance au glucose, • une augmentation de l'insulinémie basale, et • une augmentation des lipides plasmatiques.
La stabulation (de 9 à 52 semaines) de ces rats a été réalisée dans une pièce à température régulée de 21 à 22 °C et soumise à un cycle fixe de lumière (de 7 h 30 à 19 h 30) et d'obscurité (de 19 h 30 à 7 h 30). Leur alimentation a consisté en un régime d'entretien (UAR A 03); eau et nourriture ont été fournies "ad libitum", à l'exception du jeûne nocturne précédant les tests où la nourriture était retirée. […]

Test [3] has as its system Rats SDCD mâles de 52 semaines. In words: Chronic per os treatment (14 days, twice daily) in the male SDCD rat aged 52 weeks. It is filed as in vivo. The settings on record: 0,5 mg/kg×2 per os, vs Contrôle 1,1 ± 0,14 g/l. The source says:
Les essais sont réalisés sur des rats qui présentent des anomalies pondérales associées à un hyperinsulisme et une hyperglycéridémie.
Il est recherché : • d'une part l'effet d'un traitement prolongé du produit de l'exemple 1 et de substances de référence sur ces anomalies, et • d'autre part, la consommation du glucose par le tissu adipeux est mesuré à l'état basal et en présence d'insuline (10⁻⁹ M).
On utilise des rats identiques à ceux de l'étude du traitement aigu, (cf. ci-dessus le paragraphe A- 2.1), à savoir des rats SDCD mâles agés de 52 semaines.
9 jours avant le début de l'expérimentation (J₋₉), sont constitués des lots de rats par randomisation stratifiée sur le poids.
5 jours avant le début de l'expérimentation (J₋₅), les rats sont conditionnés par administration d'une solution de gomme.
Le premier jour de l'expérimentation (J₁), les produits à tester sont administrés à différentes doses aux rats 2 fois par jour. Plus précisémment, les produits sont administrés en suspension dans la gomme entre 9 et 10 heures et 16-17 heures pendant 14 jours. Une pesée quotidienne des animaux traités est effectuée.
Le 15ème jour, les rats (à jeun depuis 18 heures) sont sacrifiés par décapitation. Le sang est recueilli directement dans une cupule. Un aliquote (50 µl) est transféré dans 500 µl d'acétate d'uranyl pour dosage de la glycémie. […]

Test [4] relates to LDL. Put plainly: LDL oxidation in vitro by monocytes. In kind it is cell-based. Particulars: à 10⁻⁴ M. The source says: (§1) Une étude comparative entre le produit de l'exemple 1 et les substances de référence (Benfluorex, Diméthylbiguanide) sur l'oxydation des LDL in vitro a été réalisée.
Test [5] relates to LDL. In words: LDL oxidation in vitro by copper. In kind it is biochemical. Particulars: à 10⁻⁴ M.
Source text: as §1

As for `COC(CNCCOC(=O)c1ccc(CCNC(=O)CC2c3ccccc3-c3ccccc32)cc1)c1cccc(C(F)(F)F)c1` (single isomer, unassigned) [Exemple 1, Isomère lévogyre du chlorhydratede para-[2-(α-fluorén-9-ylacétylamino) éthyl] benzoatede 2-[(β-méthoxy β-métatrifluorométhylphényl) éthylamino] éthyle], the “Tolérance au glucose K.10^-2” value in test [1] (Controle 3,54±0,24, amyline alone 1,71±0,27) is given as 3,79±0,38. Moreover, the Insulinémie basale in test [1] (Controle 5,93±0,48, amyline alone 6,87±0,77) was 8,26±1,15 µU/ml. Also, the “Insulinémie 24 min après glucose” value in test [1] (Controle 8,86±0,77, amyline alone 15,28±1,90) is given as 15±1,86 µU/ml. Also, in test [1] (Controle 24,80±1,86, amyline alone 23,54±1,7), the Insulinémie au pic was 23,60±2,17 µU/ml. The “Insulinémie au pic Variation %” value in test [2] is 0%. The Cholestérol variation % in test [3] is given as 0%.

`CC(Cc1cccc(C(F)(F)F)c1)NCCOC(=O)c1ccccc1` (stereo not drawn) [Benfluorex, 1-(3-trifluorométhylphényl)-2-(β-benzoyloxyéthyl)aminopropane]: the “Oxydation des LDL in vitro par les monocytes” value in test [4] was “Inactif à 10⁻⁴ M”. In test [5], the “Oxydation des LDL in vitro par le cuivre” value is “Inactif à 10⁻⁴ M”.

The values above are taken from EP0518769B1, “Ethanolaminebenzoate derivative, process for their preparation and pharmaceutical compositions containing them” (ADIR ET COMPAGNIE, priority 1991, dated 1992).
